Here are results for two compounds from US8877765B2, “Highly soluble pyrimido-dione-quinoline compounds and their use in the treatment of cancer” (The United States of America as represented by the …, priority 2006, dated 2014).

Where a SMILES comes first, the peptide text is derived from it. [ ]: non-standard residue; d: D form. Nle = CCCC[C@H](N)C(=O)O

The target of series [1] is gp78 (AMFR) (Homo sapiens, UniProt Q9UKV5). Nature of the series: E3 specificity: level of transfected gp78 in MEFs expressing neither Mdm2 nor p53. Conditions: immunoblotting, FIG. 5. On the technique in general: Immunoblotting shows a protein as a band on a membrane.
From the text: (§1) Following treatment with ALLN, 1, 2 (10-(4-methyl-phenyl)-7-nitro-10H-pyrimido[4,5-b]quinoline-2,4-dione), 3 (10-(4-chloro-phenyl)-7-nitro-10H-pyrimido[4,5-b]quinoline-2,4-dione), and 4 (10-(3-chloro-phenyl)-7-nitro-10H-pyrimido[4,5-b]quinoline-2,4-dione), levels of the E3s were examined by immunoblotting with specific antibodies.
Series [2] concerns AO7 (RNF25). Kind of series: E3 specificity: level of transfected AO7 in MEFs expressing neither Mdm2 nor p53. Conditions: immunoblotting, FIG. 5.
From the text: as §1
The target in series [3] is T1, Hdm2 (Homo sapiens, UniProt Q00987). Particulars: U2OS cells; FIG. 6.
Series [4] deals with T1, Hdm2. Kind of series: E3 specificity: level of transfected Hdm2 in MEFs expressing neither Mdm2 nor p53. Particulars: immunoblotting, FIG. 5.
From the text: as §1
For series [5], the system named is Hdm2 and p53. Nature of the series: Accumulation of Hdm2 and p53 in non-transformed RPE cells (immunoblot). Particulars: 8 hours, 5 μM or 10 μM solution in PBS, or 5 μm solution in DMSO, FIG. 1. It counts as cell-based, human. The protocol: Human retina pigment epithelial (RPE) cells were cultured with HyQ DME/F (HyClone) supplemented with 10% FCS and 2.5% Sodium Bicarbonate. They were harvested with Trpsin-EDTA and seeded into a 12-well tissue culture cluster and incubated for 18-40 hours to reach 80% confluent. Following treatment with indicated compounds for 8 hours, the cells were harvested and lysed with RIPA buffer. Following removal of insoluble pellet by centrifugation for 20 minutes at 10000 rpm, the lysate was separated on a 4-20% gradient SDS-polyacrylamide gel and transferred onto nitrocellulose membrane. The membrane was then blotted with anti-p53 antibody (DO-1) anti-Hdm2 antibodies (Ab-1 and Ab-2). After extensive washing with PBS containing 0.5% Triton x-100, it was incubated with HRP-conjugated donkey anti-mouse antibody and visualized using enhanced chemiluminescence.

The test system of series [6] is p53. Kind of series: p53 response element-driven luciferase reporter in U2OS cells. Type of series: cell-based. Particulars: 18 hours, FIG. 3. The protocol:
U2OS cells stably transfected with a p53 response element-driven luciferase were treated with indicated concentration of compounds for 18 hours. The cells were then harvested and lysed to measure luciferase activity using the luciferase assay system (Promega) according to manufacturer's instruction.
(A reporter such as luciferase makes a cellular process visible.)

Series [7] has as its system tumor cells expressing wild type p53. Nature of the series: Apoptosis-inducing activity in tumor cell lines that do or do not express p53. Type of series: cell-based. Particulars: pair of cell lines that either do or do not express p53; FIG. 7.
Series [8] in a line: Additional experiments on DNA damage (data not shown).

T1 sequence (Q00987 whole entry): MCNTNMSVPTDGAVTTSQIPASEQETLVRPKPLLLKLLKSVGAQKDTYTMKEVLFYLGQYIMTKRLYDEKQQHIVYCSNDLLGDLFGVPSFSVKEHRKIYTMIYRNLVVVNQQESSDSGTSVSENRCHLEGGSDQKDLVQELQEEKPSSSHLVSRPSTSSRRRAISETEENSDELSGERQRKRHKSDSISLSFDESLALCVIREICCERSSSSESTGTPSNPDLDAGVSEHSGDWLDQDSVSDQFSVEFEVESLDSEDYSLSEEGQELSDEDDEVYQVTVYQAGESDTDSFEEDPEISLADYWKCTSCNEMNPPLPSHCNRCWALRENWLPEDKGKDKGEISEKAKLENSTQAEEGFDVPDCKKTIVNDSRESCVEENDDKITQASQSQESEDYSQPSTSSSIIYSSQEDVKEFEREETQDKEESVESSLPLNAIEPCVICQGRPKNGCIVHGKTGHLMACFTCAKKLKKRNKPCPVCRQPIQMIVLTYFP
gp78 (AMFR), sequence (Q9UKV5 whole entry, species assumed): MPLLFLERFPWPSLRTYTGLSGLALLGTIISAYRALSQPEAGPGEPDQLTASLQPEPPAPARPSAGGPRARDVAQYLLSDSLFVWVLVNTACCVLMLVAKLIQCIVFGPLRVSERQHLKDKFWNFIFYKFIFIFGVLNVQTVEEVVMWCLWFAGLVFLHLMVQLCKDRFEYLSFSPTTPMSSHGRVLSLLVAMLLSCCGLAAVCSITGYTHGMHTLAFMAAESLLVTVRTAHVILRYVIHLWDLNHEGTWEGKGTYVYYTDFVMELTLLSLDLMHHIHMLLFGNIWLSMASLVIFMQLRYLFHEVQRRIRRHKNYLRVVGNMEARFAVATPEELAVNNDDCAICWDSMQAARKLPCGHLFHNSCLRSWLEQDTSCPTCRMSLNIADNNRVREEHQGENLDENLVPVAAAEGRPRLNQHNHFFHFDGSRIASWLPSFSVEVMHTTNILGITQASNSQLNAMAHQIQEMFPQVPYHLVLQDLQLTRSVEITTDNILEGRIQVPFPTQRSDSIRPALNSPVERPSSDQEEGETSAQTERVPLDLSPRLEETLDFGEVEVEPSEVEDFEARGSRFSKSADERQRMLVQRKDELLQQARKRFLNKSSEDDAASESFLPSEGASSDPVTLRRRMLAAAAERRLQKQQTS

As for `CCCC[C@@H](C=O)NC(=O)[C@H](CC(C)C)NC(=O)[C@H](CC(C)C)NC(C)=O` [ALLN] (Ac-Leu-Leu-[Nle]-aldehyde), the “level of gp78” value in series [1] is recorded as “higher levels”. Besides, in series [2], the “level of AO7” value is on record as “higher levels”. Further, in series [3], the “accumulation of ubiquitylated p53” value is given as “easily detectable”; the “degradation / stabilization of p53 and Hdm2” value is “stabilized Hdm2 and p53”. In addition, the “level of Hdm2” value in series [4] is “higher levels”.
Consider `CN(C)CCCNc1c2c(=O)n(C)c(=O)nc-2n(C)c2ccccc12` [Compound 1, 5-(3-Dimethylamino-propylamino)-3,10-dimethyl-10H-pyrimido[4,5-b]quinoline-2,4-dione], for which, in series [1], the “level of gp78” value is “little effects”. Also, the “accumulation of both Hdm2 and p53” value in series [5] is “significant accumulation of both Hdm2 and p53”. Further, the “capacity to activate a p53 reporter (luciferase activity)” value in series [6] was “high capacity to activate a p53 reporter”. Further, in series [6] (concentration of 10 μM), the “p53 reporter activity compared with proteosome inhibitor and Adriamycin” value was “much greater than proteosome inhibitor and Adriamycin”. Moreover, the “killing of tumor cells by p53 status” value in series [7] is listed as “preferential killing of tumor cells expressing wild type p53”. Moreover, the “functioning by inducing DNA damage” value in series [8] is on record as “ruled out”.
